Measured values from ChEMBL document CHEMBL6071133, “Discovery of novel penetrating peptides able to target human leukemia and lymphoma for enhanced PROTAC delivery” (Eur J Med Chem, 2024).

What was measured:
[1] = Drug uptake in human CCRF-CEM cells assessed as increase in fluorescence intensity at 5 umol/L measured for 60 to 240 mins by flow cytometry; assay type: ADME, cell-based; settings: 5 µM, TDE = time-dependent effect, time 60-240 min, dose 5 µmol/L
[2] = Drug uptake in human CCRF-CEM cells assessed as increase in fluorescence intensity at 1 to 10 umol/L incubated for 2 hrs by cell imaging based fluorescence microscopic analysis; assay type: ADME; settings: dose 1-10 µmol/L
[3] = Drug uptake in human THP-1 cells assessed as increase in fluorescence intensity at 10 umol/L incubated for 2 hrs by cell imaging based fluorescence microscopic analysis; assay type: ADME; settings: thp-1, 2 h, 10 µM, dose 10 µmol/L
[4] = Drug uptake in human KU812 cells assessed as perinuclear distribution and colocalization with nucleus at 10 umol/L incubated for 2 hrs by confocal laser microscopy; assay type: ADME, cell-based; settings: ku812, 2 h, 10 µM, dose 10 µmol/L
[5] = Drug uptake in human CCRF-CEM cells assessed as increase in fluorescence intensity at 1 to 10 uM incubated for 2 hrs by flow cytometry; assay type: ADME, cell-based; settings: dose 1-10 µM
[6] = Drug uptake in human CCRF-CEM cells assessed as increase in fluorescence intensity at 5 umol/L measured for 5 to 60 mins by flow cytometry; assay type: ADME, cell-based; settings: 5 µM, time 5-60 min, dose 5 µmol/L
[7] = Drug uptake in human K562 cells assessed as perinuclear distribution and colocalization with nucleus at 10 umol/L incubated for 2 hrs by confocal laser microscopy; assay type: ADME, cell-based; settings: k562, 2 h, 10 µM, dose 10 µmol/L
[8] = Drug uptake in human CCRF-CEM cells assessed as membrane penetration by measuring increase in fluorescence intensity at 5 umol/L incubated for 2 hrs by flow cytometry relative to C9C; assay type: ADME, cell-based; settings: 5 µM, dose 5 µmol/L
[9] = Drug uptake in human CCRF-CEM cells assessed as perinuclear distribution and colocalization with nucleus at 10 umol/L incubated for 2 hrs by confocal laser microscopy; assay type: ADME, cell-based; settings: 10 µM, dose 10 µmol/L

Drug uptake [1]: Tde
Drug uptake [2]: Active
Drug uptake [3]: Active
Drug uptake [4]: Active
Drug uptake [5]: Dose-Dependent Effect
Drug uptake [6]: Active
Drug uptake [7]: Active
fold change (FC) [8]: 2.97
Drug uptake [9]: Active
SMILES: CC(C)C[C@@H]1NC(=O)[C@H](Cc2csc3ccccc23)NC(=O)[C@@H](Cc2ccccc2)NC(=O)[C@H](Cc2ccccc2)NC(=O)[C@H](CCCNC(=N)N)NC(=O)[C@H](CCCCN)NC(=O)[C@H](CCC(=O)O)NC(=O)[C@H](CO)NC(=O)[C@H](CCCNC(=N)N)NC1=O
